Assay results published in patent US9637499B2, “Benzodioxole or benzodioxepine heterocyclic compounds as phosphodiesterase inhibitors” (LEO PHARMA A/S, priority 2010, dated 2017).

Assays:
[1] = molecular target: Human recombinant PDE4 (Genbank accession no NM_006203) (Homo sapiens (Human), UniProt Q08499); test: PDE4 Assay (SPA, cAMP cleavage); assay type: biochemical; conditions: human recombinant PDE4, 1 hour incubation, cAMP 1x10-5 M
Protocol: At the end of the incubation, the cleavage of the substrate was evaluated by the binding of the AMP product to SPA beads, which generate chemoluminescence when bound to the radioactive tracer. The AMP product inhibited the binding of the radioactive tracer to the beads, and the luminescent signal was competed.
The results were calculated as the molar concentrations resulting in 50% inhibition of the substrate cleavage compared to controls samples, and are expressed as IC50 (M).

[2] = In vivo pharmacokinetic analyses in rat, oral dosing; conditions: serum, PO dosing 5 mg/kg
Protocol: One rat is dosed orally (5 mg/kg—dissolved in DMSO/H2O/propylenglycol [1:5:4]) and blood samples are taken from the sublingual venous plexus at 30 min, 1 h, 2 h, 4 h and 6 h. Blood samples are taken in BD Vacutainer SST serum separation tubes, serum is isolated by centrifugation, transferred to micronics tubes and subsequently analysed.
Mass spectrometer (API5000 series) parameters are optimised to analyse for the specific compounds and test injections are performed to confirm the validity of the established generic chromatography method. The generic method is based on fast gradient (2.5 min) analysis on C18 column with mobile phases consisting methanol, ammonium acetate, formic acid and water.
Standards are prepared in rat serum to cover the analytical range 0.1 to 300 ng/ml. Standards, blank serum and study samples are applied to 96 deepwell plate and proteins are precipitated by addition of acetonitrile containing internal standard. Samples are analysed on LC-MS/MS usually overnight. Integration and quantification is performed on ration between analyte and internal standard using Analyst software version 1.5. Pharmacokinetic parameters are calculated using a standardised Excel spreadsheet.
In vivo pharmacokinetic profile in rat of compound 101 disclosed in WO 2008/104175 and compound 105 and 106 disclosed in examples 5 and 6, respectively: […]

Sequence of Human recombinant PDE4 (Genbank accession no NM_006203) (Q08499 other isoform, or with tags, fused parts or gaps): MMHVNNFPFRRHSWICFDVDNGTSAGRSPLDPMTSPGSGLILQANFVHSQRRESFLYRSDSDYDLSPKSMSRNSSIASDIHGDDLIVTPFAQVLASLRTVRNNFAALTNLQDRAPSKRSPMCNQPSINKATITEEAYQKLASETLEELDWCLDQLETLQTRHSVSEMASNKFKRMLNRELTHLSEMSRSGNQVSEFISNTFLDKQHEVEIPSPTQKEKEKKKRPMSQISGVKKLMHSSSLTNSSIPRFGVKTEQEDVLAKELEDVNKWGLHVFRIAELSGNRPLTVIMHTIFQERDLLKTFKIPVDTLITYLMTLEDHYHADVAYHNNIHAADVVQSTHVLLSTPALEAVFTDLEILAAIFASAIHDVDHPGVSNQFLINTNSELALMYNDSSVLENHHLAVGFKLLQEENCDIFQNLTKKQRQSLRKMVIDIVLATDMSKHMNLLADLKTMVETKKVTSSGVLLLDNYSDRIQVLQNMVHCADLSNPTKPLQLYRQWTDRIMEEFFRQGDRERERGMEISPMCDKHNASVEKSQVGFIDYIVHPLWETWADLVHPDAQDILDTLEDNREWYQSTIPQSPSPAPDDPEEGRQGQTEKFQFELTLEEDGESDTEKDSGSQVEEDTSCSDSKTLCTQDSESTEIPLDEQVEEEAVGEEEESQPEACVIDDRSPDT

SMILES	IC50 [1] [µM]	bioavailability [2] [%]
O=C(Nc1c(Cl)c[n+](O)cc1Cl)c1ccc(OC(F)F)c2c1OC1(CCS(=O)(=O)CC1)O2 [compound 111, N-(3,5-dichloro-1-oxo-4-pyridyl)-7-(difluoromethoxy)-1′,1′-dioxo-spiro[1,3-benzodioxole-2,4′-thiane]-4-carboxamide]	0.106	–
O=C(Cc1c(Cl)c[n+]([O-])cc1Cl)c1ccc(OC(F)F)c2c1OC1(CCOCC1)O2 [compound 106, 2-(3,5-Dichloro-1-oxido-pyridine-4-yl)-1-(7-difluoromethoxy-2′,3′,5′,6′-tetrahydro-spiro[1,3-benzodioxole-2,4′-(4H)-pyran]-4-yl)ethanone]	–	22
